Measurements reported in PMC5506883 (Heliyon, 2017).

Experiments:
[1] = test system: xanthine oxidase; conditions: ref Sheu and Chiang, 1997; cited from earlier work
[2] = target: Horse butyrylcholinesterase (EC 3.1.1.8) (Equus caballus, UniProt P81908); assay: Anticholinesterase assay; format: biochemical; conditions: Butyrylcholinesterase inhibition activity IC50 μM ± SEM, mean of three experiments with SEM; 15 min at 25 °C, pH 8.0
Sequence of Horse butyrylcholinesterase (EC 3.1.1.8) (P81908 whole entry): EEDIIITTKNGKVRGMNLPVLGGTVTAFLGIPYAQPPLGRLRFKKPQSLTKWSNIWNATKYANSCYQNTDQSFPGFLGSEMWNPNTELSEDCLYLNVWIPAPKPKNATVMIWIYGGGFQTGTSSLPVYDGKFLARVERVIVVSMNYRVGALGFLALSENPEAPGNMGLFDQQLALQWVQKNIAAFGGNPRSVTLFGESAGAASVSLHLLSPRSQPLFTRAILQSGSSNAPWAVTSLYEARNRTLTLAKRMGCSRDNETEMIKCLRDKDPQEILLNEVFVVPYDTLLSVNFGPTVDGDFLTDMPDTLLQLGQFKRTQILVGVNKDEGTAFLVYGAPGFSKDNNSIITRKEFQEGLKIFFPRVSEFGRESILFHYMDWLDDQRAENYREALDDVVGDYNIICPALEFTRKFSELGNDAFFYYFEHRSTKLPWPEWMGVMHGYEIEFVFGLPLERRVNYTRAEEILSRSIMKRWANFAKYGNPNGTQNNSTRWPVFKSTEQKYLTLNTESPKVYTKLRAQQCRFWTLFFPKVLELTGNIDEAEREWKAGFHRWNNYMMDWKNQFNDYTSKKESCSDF

Q: With `Oc1ccc2c(O)c3ccccc3cc2c1O` [Compound 1, anthracene-1,2,10-triol] as the molecule, how does the “xanthine oxidase inhibitory activity at concentration” value [1] read?
A: 68.35 µM

Q: And the IC50 [2]?
A: 89.3 ± 0.21 µM
